Here are results for one compound from publication PMC8799717, “Pharmacological targeting PIKfyve and tubulin as an effective treatment strategy for double-hit lymphoma” (Cell Death Discovery, 2022).

Among the targets are CDK7 (Homo sapiens, UniProt P50613); TSSK3 (Homo sapiens, UniProt Q96PN8); GRK3 (Homo sapiens, UniProt P35626); PIK3CA(C420R) (Homo sapiens, UniProt P42336, C420R); PIK3CA(E545K) (Homo sapiens, UniProt P42336, E545K); PAK4 (Homo sapiens, UniProt O96013); PIK3CA(M1043I) (Homo sapiens, UniProt P42336, M1043I); MAP4K4 (Homo sapiens, UniProt O95819); ACVR2A (Homo sapiens, UniProt P27037); PIM2 (Homo sapiens, UniProt Q9P1W9); WNK3 (Homo sapiens, UniProt Q9BYP7); GSK3B (Homo sapiens, UniProt P49841); MERTK (Homo sapiens, UniProt Q12866); PLK2 (Homo sapiens, UniProt Q9NYY3); ITK (Homo sapiens, UniProt Q08881); PDGFRA (Homo sapiens, UniProt P16234); MARK3 (Homo sapiens, UniProt P27448).

What all share (assay): biochemical
Holding throughout (set-up): KINOMEscan active-site-directed competition binding panel, 468 kinases, percent of DMSO control at 1 uM
What all share (settings): KINOMEscan binding, percent of DMSO control; read-out: Ctrl%

In a further assay the target is T1, MINK (Homo sapiens, UniProt Q8N4C8).
T1 construct: gene MINK1

The target of another assay is T2, CTK (Homo sapiens, UniProt P42679).
T2 construct: gene MATK
T2 sequence (P42679 whole entry): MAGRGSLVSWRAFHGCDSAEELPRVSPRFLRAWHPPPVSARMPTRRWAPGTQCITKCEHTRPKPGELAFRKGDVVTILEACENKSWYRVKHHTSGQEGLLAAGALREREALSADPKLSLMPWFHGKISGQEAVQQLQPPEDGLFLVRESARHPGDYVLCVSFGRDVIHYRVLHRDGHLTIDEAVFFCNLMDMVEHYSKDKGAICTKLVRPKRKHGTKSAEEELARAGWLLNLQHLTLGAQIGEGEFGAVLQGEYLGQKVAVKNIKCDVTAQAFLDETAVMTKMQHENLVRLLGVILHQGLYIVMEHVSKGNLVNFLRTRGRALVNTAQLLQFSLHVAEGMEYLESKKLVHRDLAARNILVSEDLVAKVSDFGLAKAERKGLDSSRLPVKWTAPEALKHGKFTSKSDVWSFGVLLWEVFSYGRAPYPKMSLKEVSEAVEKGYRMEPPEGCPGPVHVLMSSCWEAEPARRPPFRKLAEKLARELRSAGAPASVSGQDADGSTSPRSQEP

For the next assay, the target named is T3, PCTK1 (Homo sapiens, UniProt Q00536).
T3 construct: gene CDK16
T3 sequence (Q00536 whole entry): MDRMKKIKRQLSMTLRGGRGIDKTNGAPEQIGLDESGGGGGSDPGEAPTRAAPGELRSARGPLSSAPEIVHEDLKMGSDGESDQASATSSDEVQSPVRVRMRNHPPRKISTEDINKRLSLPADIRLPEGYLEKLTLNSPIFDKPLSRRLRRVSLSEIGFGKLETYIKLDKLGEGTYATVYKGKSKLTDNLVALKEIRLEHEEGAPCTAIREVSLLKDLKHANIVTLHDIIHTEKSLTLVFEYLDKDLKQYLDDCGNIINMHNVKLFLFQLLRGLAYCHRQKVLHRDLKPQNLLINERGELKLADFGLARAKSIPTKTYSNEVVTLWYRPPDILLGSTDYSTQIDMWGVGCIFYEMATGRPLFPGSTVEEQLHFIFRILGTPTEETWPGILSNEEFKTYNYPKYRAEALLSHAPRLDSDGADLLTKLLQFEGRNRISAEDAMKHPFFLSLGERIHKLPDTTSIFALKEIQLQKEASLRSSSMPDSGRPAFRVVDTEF

In another assay the target is T4, ERK2 (Homo sapiens, UniProt P28482).
T4 construct: gene MAPK1

For assay [1], the target named is T5, ABL1(Y253F)-phosphorylated (Homo sapiens, UniProt P00519, Y253F).
T5 construct: phosphorylated

The target in another assay is T6, CDC2L2 (Homo sapiens, UniProt Q9UQ88).
T6 construct: gene CDK11A
T6 sequence (Q9UQ88 whole entry): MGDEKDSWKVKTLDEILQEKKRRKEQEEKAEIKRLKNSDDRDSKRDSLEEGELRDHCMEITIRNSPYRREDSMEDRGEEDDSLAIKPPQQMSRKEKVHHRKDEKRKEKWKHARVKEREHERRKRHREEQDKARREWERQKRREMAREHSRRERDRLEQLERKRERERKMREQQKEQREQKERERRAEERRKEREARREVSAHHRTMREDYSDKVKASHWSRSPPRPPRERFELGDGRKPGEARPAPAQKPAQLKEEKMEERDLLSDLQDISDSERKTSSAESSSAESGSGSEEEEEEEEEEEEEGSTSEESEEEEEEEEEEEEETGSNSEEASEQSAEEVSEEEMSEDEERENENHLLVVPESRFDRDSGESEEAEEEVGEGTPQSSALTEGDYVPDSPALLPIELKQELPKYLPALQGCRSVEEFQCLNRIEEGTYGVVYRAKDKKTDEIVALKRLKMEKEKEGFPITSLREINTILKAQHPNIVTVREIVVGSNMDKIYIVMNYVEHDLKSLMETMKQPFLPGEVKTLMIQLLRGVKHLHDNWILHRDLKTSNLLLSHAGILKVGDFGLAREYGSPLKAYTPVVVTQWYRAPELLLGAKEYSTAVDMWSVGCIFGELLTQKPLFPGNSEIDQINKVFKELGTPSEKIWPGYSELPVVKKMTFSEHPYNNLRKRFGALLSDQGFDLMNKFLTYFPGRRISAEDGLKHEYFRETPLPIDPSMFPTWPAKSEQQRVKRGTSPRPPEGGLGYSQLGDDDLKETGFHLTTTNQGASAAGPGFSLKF

Another assay concerns the target T7, ASK1 (Homo sapiens, UniProt Q99683).
T7 construct: gene MAP3K5

Sequence of PIK3CA(E545K) (P42336 whole entry E545K): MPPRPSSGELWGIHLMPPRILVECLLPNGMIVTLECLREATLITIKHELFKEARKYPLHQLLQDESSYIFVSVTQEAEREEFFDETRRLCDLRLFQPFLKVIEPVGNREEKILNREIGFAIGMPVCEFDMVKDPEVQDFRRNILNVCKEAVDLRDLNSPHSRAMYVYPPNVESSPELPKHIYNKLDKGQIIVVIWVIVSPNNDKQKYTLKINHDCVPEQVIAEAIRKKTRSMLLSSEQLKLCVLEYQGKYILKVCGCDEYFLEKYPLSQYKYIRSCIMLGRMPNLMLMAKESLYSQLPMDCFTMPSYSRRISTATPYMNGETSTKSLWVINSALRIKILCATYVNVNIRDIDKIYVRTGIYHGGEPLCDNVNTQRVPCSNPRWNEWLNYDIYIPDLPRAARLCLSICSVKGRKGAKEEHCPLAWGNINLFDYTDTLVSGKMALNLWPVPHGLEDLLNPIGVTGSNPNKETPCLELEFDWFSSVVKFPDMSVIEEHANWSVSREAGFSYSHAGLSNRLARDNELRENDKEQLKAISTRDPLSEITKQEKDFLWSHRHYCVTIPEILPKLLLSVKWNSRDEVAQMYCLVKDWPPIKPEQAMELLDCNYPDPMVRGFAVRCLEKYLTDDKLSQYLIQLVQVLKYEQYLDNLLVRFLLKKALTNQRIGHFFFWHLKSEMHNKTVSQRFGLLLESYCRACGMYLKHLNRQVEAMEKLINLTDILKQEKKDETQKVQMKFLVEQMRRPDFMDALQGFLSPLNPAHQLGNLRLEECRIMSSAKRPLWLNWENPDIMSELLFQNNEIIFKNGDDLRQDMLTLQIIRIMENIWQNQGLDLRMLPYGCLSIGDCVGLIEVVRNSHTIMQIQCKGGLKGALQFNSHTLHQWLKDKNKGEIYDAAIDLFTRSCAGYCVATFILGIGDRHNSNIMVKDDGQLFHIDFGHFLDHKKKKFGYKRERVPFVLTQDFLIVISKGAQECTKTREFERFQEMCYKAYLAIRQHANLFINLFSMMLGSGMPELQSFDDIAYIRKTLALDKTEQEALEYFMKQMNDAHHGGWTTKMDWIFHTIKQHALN
Sequence of GSK3B (P49841 whole entry): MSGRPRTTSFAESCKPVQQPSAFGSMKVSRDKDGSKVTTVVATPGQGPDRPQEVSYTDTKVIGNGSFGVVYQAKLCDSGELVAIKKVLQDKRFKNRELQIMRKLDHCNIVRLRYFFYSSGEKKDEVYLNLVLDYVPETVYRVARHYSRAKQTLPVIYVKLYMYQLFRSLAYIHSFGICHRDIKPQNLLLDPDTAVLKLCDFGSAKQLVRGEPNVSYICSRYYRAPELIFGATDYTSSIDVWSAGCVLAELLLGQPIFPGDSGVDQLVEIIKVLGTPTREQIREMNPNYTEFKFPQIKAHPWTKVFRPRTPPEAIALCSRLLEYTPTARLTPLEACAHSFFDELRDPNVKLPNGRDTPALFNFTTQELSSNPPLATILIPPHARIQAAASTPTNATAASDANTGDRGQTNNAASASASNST
Sequence of PDGFRA (P16234 whole entry): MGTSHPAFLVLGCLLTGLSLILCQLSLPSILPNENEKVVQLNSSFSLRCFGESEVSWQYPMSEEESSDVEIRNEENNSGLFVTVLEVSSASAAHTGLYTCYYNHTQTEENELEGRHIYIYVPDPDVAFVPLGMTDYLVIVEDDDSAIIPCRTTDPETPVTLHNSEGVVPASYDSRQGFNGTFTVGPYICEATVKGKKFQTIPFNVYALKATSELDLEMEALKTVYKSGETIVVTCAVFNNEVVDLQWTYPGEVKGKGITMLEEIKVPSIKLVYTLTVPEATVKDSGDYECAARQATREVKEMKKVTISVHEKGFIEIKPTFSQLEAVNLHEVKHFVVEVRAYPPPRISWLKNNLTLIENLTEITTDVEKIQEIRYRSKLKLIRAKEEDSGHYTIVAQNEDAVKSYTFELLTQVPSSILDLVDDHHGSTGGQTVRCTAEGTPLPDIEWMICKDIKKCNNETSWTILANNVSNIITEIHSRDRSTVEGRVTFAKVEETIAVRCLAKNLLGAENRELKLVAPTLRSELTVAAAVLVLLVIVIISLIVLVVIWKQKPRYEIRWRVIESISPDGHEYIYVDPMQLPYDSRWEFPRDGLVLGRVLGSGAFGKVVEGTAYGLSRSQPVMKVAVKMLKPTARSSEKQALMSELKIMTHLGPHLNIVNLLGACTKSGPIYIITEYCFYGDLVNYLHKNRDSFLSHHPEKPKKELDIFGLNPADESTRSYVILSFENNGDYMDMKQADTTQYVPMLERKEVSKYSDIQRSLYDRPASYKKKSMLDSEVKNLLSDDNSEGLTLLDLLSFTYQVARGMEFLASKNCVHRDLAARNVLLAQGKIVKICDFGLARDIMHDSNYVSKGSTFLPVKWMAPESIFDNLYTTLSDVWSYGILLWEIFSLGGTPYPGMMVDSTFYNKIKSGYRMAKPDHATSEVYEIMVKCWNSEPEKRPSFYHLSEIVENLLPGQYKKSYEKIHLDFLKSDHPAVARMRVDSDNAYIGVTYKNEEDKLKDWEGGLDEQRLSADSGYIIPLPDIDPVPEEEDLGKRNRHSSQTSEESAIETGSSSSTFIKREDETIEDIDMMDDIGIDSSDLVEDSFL
Sequence of PIM2 (Q9P1W9 whole entry): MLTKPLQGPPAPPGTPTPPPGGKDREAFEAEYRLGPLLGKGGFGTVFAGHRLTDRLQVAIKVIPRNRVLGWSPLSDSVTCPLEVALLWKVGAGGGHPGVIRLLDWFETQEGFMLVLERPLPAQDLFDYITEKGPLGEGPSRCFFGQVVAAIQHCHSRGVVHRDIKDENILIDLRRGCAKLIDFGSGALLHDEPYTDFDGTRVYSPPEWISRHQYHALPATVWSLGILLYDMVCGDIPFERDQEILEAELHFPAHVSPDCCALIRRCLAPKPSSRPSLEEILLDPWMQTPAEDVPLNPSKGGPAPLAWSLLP
Sequence of TSSK3 (Q96PN8 whole entry): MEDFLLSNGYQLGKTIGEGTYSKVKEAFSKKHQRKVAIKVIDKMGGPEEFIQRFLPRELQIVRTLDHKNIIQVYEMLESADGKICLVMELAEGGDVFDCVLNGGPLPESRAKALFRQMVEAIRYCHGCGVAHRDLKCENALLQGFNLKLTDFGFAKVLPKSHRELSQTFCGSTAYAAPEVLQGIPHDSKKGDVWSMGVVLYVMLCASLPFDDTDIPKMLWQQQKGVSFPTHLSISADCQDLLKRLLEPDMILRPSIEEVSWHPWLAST
Sequence of PIK3CA(C420R) (P42336 whole entry C420R): as the sequence (P42336 whole entry E545K) above, with C420R, K545E counted along it
Sequence of PIK3CA(M1043I) (P42336 whole entry M1043I): as the sequence (P42336 whole entry E545K) above, with K545E, M1043I counted along it

`Cc1ccc(NC(=O)c2cccc(C(F)(F)F)c2)cc1Nc1cc(-c2cccnc2)nc2[nH]ccc12` [HZX-02-059]: the remaining binding at 1 µM at MINK stood at 91%; on CTK, 56%; on CDK7, 69%; at TSSK3, 100%; at GRK3, 98%; at PCTK1 it was 100%. The remaining binding at 1 µM on ERK2 is 100%; on PIK3CA(C420R) it was 100%; on PIK3CA(E545K), 63%; on PAK4 it was 95%; at PIK3CA(M1043I) it was 92%; at MAP4K4 it was 89%. Also, the remaining binding at 1 µM on ACVR2A was 75%; on PIM2, 88%; at WNK3 it was 100%; at GSK3B, 83%; in [1], 49%; at CDC2L2 it was 80%. Besides, the remaining binding at 1 µM on MERTK is 86%; on PLK2, 99%; at ITK it was 100%; on ASK1, 93%; at PDGFRA, 66%; at MARK3 it was 92%.
